Assays:
TLR7 = target: T1, TLR7 (Homo sapiens, UniProt Q9NYK1); assay: TLR7 human peripheral blood mononuclear cell (PBMC) cell-based assay; conditions: human PBMCs; 1 h with test antagonist, then TLR7 agonist GS-986 400 nM for 6 h; cytokines (IL-6 and IFNα) in supernatant; read-out: TLR-7 EC50
T1 construct: Human peripheral blood mononuclear cells (PBMCs) consist of lymphocytes, monocytes and dendritic cells that express TLR7, TLR8 and TLR9; endogenous in cells; host or cells: cryopreserved human PBMCs from healthy donors
T1 sequence (Q9NYK1 27-1049): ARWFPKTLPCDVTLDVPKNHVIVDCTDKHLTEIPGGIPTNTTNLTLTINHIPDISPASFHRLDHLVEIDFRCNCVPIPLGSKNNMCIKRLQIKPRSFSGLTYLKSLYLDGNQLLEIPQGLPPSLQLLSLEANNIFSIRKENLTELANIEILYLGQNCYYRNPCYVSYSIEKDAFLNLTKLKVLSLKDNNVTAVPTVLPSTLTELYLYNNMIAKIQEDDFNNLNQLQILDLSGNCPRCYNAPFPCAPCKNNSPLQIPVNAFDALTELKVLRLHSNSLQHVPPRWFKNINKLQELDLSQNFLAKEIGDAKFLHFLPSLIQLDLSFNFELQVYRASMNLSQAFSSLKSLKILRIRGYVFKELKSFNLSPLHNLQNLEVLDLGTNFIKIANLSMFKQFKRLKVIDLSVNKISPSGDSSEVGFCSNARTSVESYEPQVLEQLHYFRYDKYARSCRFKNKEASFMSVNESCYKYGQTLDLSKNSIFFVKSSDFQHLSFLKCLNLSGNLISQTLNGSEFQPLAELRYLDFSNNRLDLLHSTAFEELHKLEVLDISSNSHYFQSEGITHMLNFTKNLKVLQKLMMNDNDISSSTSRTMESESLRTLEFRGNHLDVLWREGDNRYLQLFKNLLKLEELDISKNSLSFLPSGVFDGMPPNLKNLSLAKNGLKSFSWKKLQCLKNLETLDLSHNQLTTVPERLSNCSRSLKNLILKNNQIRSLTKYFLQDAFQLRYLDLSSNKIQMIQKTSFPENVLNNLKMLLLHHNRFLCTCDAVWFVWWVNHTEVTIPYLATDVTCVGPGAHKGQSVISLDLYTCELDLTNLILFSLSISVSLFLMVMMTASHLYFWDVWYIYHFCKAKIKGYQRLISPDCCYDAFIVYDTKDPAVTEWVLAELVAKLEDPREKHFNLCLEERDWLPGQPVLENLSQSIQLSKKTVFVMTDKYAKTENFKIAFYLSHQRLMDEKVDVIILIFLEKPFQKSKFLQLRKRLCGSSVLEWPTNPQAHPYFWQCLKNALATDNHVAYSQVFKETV
From the text: TLR7/9 Human Peripheral Blood Mononuclear Cell (PBMC) Cell-Based Assay
Human peripheral blood mononuclear cells (PBMCs) consist of lymphocytes, monocytes and dendritic cells that express TLR7, TLR8 and TLR9. These cells respond to TLR7, TLR8 and TLR9 ligand stimulation and produce cytokines and chemokines in vitro and in vivo. Human PBMCs are therefore suitable to be used in a cell-based assay to assess the in vitro potency of a TLR 7, 8, and/or 9 antagonist.
Cryopreserved human PBMCs from healthy donors were thawed and resuspended in RPMI-1640 media with L-glutamine (Corning) supplemented with 10% Fetal Bovine Serum (Hyclone) and 1× Penicillin-Streptomycin (Corning). After counting, the cell density was adjusted to 2 million cells/ml and incubated for 1 hour at 37° C., 5% CO2 for recovery. Following the recovery, the cells were plated by adding 50 μl per well (100,000 cells) to 384-well cell culture plates (Greiner) containing 250 nl of test antagonists in 100% DMSO per well, in a 10 points dose response in quadruplicates. PBMCs were incubated in the presence of test antagonists for one hour at 37° C., 5% CO2 before being stimulated with a TLR7 or TLR9 agonist. GS-986 (Gilead Sciences) was used as the TLR7 agonist at a final concentration of 400 nM. ODN-2216 (InvivoGen) was used as the TLR9 agonist at a final concentration of 3 μM. PBMCs were incubated in the presence of the test antagonist and the TLR7 (or TLR9) agonist for an additional 6 hours at 37° C., 5% CO2. At the end of the incubation, the cell culture plates were centrifuged at 500 g for 5 min, and the cell culture supernatant was collected. The level of cytokines (IL-6 and IFNα) in the supernatant was measured by electrochemiluminescence immunoassays (Mesoscale Discovery) following manufacturer's recommended protocols. The level of cytokine measured was plotted against the test antagonist concentration and fitted to a sigmoidal function to determine the EC50, which are shown below in Table 6.

TLR8 = target: T2, TLR8 (Homo sapiens, UniProt Q9NR97); assay: TLR8 human peripheral blood mononuclear cell (PBMC) cell-based assay; conditions: human PBMCs; 1 h with antagonist, then TLR8 agonist Compound A 800 nM for 6 h; cytokines (TNFa and IL12p40) in supernatant; read-out: TLR-8 EC50
T2 construct: Human peripheral blood mononuclear cells (PBMCs) consist of lymphocytes, monocytes and dendritic cells that express TLR7, TLR8 and TLR9; endogenous in cells; host or cells: cryopreserved human PBMCs from healthy donors
T2 sequence (Q9NR97 27-1041): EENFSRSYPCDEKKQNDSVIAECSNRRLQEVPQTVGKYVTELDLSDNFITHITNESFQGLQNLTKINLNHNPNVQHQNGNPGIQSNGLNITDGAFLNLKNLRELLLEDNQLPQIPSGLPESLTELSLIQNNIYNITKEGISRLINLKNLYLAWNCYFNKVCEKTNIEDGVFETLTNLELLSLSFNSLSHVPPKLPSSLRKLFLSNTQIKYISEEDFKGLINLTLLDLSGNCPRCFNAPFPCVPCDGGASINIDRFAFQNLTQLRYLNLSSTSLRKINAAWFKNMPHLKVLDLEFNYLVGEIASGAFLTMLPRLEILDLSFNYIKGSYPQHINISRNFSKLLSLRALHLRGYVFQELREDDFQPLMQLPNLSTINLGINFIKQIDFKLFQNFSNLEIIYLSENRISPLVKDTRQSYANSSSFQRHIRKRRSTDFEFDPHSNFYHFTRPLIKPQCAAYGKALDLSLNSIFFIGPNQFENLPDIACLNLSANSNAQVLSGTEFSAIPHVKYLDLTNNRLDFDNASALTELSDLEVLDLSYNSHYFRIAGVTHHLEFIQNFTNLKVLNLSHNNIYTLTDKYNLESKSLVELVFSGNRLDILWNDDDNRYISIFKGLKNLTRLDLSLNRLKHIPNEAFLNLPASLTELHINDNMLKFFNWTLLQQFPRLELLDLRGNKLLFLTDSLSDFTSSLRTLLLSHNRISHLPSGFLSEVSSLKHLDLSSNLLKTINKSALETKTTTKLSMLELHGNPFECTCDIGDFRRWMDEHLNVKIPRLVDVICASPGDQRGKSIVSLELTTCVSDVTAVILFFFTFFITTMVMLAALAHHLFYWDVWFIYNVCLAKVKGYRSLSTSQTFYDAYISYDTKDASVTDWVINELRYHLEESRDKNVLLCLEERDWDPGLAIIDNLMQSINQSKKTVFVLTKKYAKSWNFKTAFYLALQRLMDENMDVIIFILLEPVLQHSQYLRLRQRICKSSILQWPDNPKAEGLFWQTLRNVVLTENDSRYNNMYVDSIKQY
Description: TLR8 Human Peripheral Blood Mononuclear Cell (PBMC) Cell-Based Assay
Cryopreserved human PBMCs from healthy donors were thawed and resuspended in RPMI-1640 media with L-glutamine (Corning) supplemented with 10% Fetal Bovine Serum (Hyclone) and 1× Penicillin-Streptomycin (Corning). After counting, the cell density was adjusted to 2 million cells/ml and incubated for 1 hour at 37° C., 5% CO2 for recovery. Following the recovery, the cells were plated by adding 50 μl per well (100,000 cells) to 384-well cell culture plates (Greiner) containing 250 nl of test antagonists in 100% DMSO per well, in a 10 points dose response in quadruplicates. PBMCs were incubated in the presence of antagonists for one hour at 37° C., 5% CO2 before being stimulated with TLR8 agonist. Compound A (Gilead Sciences, U.S. Pat. No. 10,285,990) was used as the TLR8 agonist at a final concentration of 800 nM. PBMCs were incubated in the presence of antagonist and the TLR8 agonist for an additional 6 hours at 37° C., 5% CO2. At the end of the incubation, the cell culture plates were centrifuged at 500 g for 5 min, and the cell culture supernatant was collected. The level of cytokines (TNFa and IL12p40) in the supernatant was measured by electrochemiluminescence immunoassays (Mesoscale Discovery) following manufacturer's recommended protocols. The level of cytokine measured was plotted against the antagonist concentration and fitted to a sigmoidal function to determine the EC50, which are shown below in Table 6.

| SMILES | EC50 (TLR7) [nM] | EC50 (TLR8) [nM] |
| --- | --- | --- |
| CO[C@H]1CN[C@@H](C(=O)N2CCC(c3sc4[nH]c(-c5cn6ncnc6c6c5CCC6)c(C(C)C)c4c3C)CC2)C1 [Example 18] | 0.44 | 4.42 |
| CO[C@@H]1CN[C@@H](C(=O)N2CCC(c3sc4[nH]c(-c5cn6ncnc6c6c5CCC6)c(C(C)C)c4c3C)CC2)C1 [Example 19] | 0.14 | 5.42 |
| Cc1c(C2CCN(C(=O)C3(N4CCOCC4)CC3)CC2)sc2[nH]c(-c3cn4ncnc4c4c3CCC4)c(C(C)C)c12 [Example 20] | 4.63 | 22.3 |
| Cc1c(-c2ccc(N3CCNCC3)cc2)sc2[nH]c(-c3cn4ncnc4c4c3CCC4)c(C(C)C)c12 [Example 21, 5-(8,9-dihydro-7H-cyclopenta[c][1,2,4]triazolo[1,5-a]pyridin-6-yl)-4-isopropyl-3-methyl-2-(4-(piperazin-1-yl)phenyl)-6H-thieno[2,3-b]pyrrole] | 0.51 | 1.32 |
| Cc1c(-c2ccc(N3CCNCC3)nc2)sc2[nH]c(-c3cn4ncnc4c4c3CCC4)c(C(C)C)c12 [Example 22] | 0.23 | 0.66 |
| Cc1c(-c2cn(C3CCNCC3)nn2)sc2[nH]c(-c3cn4ncnc4c4c3CCC4)c(C(C)C)c12 [Example 24] | 0.94 | 0.21 |
| Cc1c(C2CCN(C(=O)[C@H]3C[C@@]4(CNCCO4)C3)CC2)sc2[nH]c(-c3cn4ncnc4c4c3CCC4)c(C(C)C)c12 [Example 25] | 0.05 | 1.38 |
| Cc1c(C2CCC(N3CC4(CCNC4=O)C3)CC2)sc2[nH]c(-c3cn4ncnc4c4c3CCC4)c(C(C)C)c12 (centres unmarked) [Example 27] | 0.26 | 2.55 |
| Cc1c(C2CCC(N3CC(C)(O)C3)CC2)sc2[nH]c(-c3cn4ncnc4c4c3CCC4)c(C(C)C)c12 (centres unmarked) [Example 28] | 0.15 | 1.57 |
| Cc1c(C2CCC(N3CC4(COC4)C3)CC2)sc2[nH]c(-c3cn4ncnc4c4c3CCC4)c(C(C)C)c12 (centres unmarked) [Example 29] | 0.1 | 1 |
| Cc1c(C2CCC(N3CC4(CCN(C)C4=O)C3)CC2)sc2[nH]c(-c3cn4ncnc4c4c3CCC4)c(C(C)C)c12 (centres unmarked) [Example 30] | 0.86 | 1.29 |
| Cc1c(C2CCN(C(=O)[C@H]3C[C@@H](O)CN3)CC2)sc2[nH]c(-c3cn4ncnc4c4c3CCC4)c(C(C)C)c12 [Example 31] | 1.33 | 6.38 |

Now from value to compound:

| EC50 (TLR7) [nM] | EC50 (TLR8) [nM] | SMILES |
| --- | --- | --- |
| 1.5 | 11.3 | Cc1c(C2CCN(C(=O)[C@H]3C[C@H](O)CN3)CC2)sc2[nH]c(-c3cn4ncnc4c4c3CCC4)c(C(C)C)c12 [Example 32] |
| 2.33 | 7.57 | CC(C)c1c(-c2cn3ncnc3c3c2CCC3)[nH]c2sc(C3CCN(C(=O)[C@H]4COCCN4)CC3)cc12 [Example 33] |
| 0.58 | 1.57 | CC(C)c1c(-c2cn3ncnc3c3c2CCC3)[nH]c2sc(C3CCN(CC(N)=O)CC3)cc12 [Example 34] |
| 0.33 | 7.88 | Cc1c(C2CCNCC2)sc2[nH]c(-c3cn4ncnc4c4c3CCO4)c(C(C)C)c12 [Example 35] |
| 4.5 | 27.6 | Cc1c(C2CCN(CC(N)=O)CC2)sc2[nH]c(-c3cn4ncnc4c4c3CCO4)c(C(C)C)c12 [Example 36] |
| 2.95 | 24.5 | Cc1c(C2CCN(C(=O)[C@H]3COCCN3)CC2)sc2[nH]c(-c3cn4ncnc4c4c3CCO4)c(C(C)C)c12 [Example 37] |
| 0.58 | 0.81 | Cc1c([C@@H]2C[C@@H]3C[C@H]2CN3CC(N)=O)sc2[nH]c(-c3cn4ncnc4c4c3CCO4)c(C(C)C)c12 [Example 38] |
| 3.4 | 5.01 | Cc1c(C2CCN(C(=O)[C@@H]3C[C@H](C(F)(F)F)CN3)CC2)sc2[nH]c(-c3cn4ncnc4c4c3CCC4)c(C(C)C)c12 [Example 39] |
| 0.49 | 2.56 | CC(C)c1c(-c2cn3ncnc3c3c2CCC3)[nH]c2sc(C(=O)N(C)C3CCNCC3)cc12 [Example 41, 5-(8,9-dihydro-7H-cyclopenta[c][1,2,4]triazolo[1,5-a]pyridin-6-yl)-4-isopropyl-N-methyl-N-(piperidin-4-yl)-6H-thieno[2,3-b]pyrrole-2-carboxamide] |
| 0.78 | 0.69 | CC(C)c1c(-c2cn3ncnc3c3c2CCC3)[nH]c2sc(C(=O)N3CCNCC3)cc12 [Example 42] |
